How the values were obtained:
OBP2 = assay: Fluorescent-quench ligand-protein-binding assay (OBP2 binding); design: species or system Apis mellifera
Source text: To identify a honeybee repellent disclosed herein, candidate compounds were screened based upon the fact that 2-heptanone is an established repellent of bees. 2-heptanone is thought to mediate its behavioral response through binding to a specific odorant-binding protein called OBP2. […] Such assays are generally known in the art. See, e.g., Briand, et al., Ligand-Binding Properties and Structural Characterization of a Novel Rat Odorant-Binding Protein Variant, Eur. J. Biochem. 267(10): 3079-3089 (2000); Briand, et al., Ligand Binding and Physico-Chemical Properties of ASP2, A Recombinant Odorant-Binding Protein From Honeybee (Apis mellifera L.), Eur. J. Biochem. 268(3): 752-760 (2001); Briand, et al., Characterization of a Chemosensory Protein (ASP3c) from Honeybee (Apis mellifera L.) as a Brood Pheromone Carrier, Eur. J. Biochem. 269(18): 4586-4596 (2002), each of which is hereby incorporated by reference in its entirety.

[1] = system: Apis mellifera Carniolan foraging worker honeybees; assay: Proboscis extension response (PER) assay with bees conditioned to 2-heptanone; format: in vivo; conditions: 0.5% compound in Triton X-100/water on filter paper, 4 s exposure; only bees giving PER with 2-heptanone and not with water or 15% Triton X-100 controls counted
Method: To determine whether a living honeybee can recognize a candidate compound, these compounds were tested using a proboscis extension response (PER) assay using classical conditioning approaches. Proboscis extension response conditioning is a case of appetitive learning, in which bees learn to associate odor stimuli with sucrose reward in the laboratory. In this case, bees were conditioned to produce a PER to 2-heptanone as the conditioned stimulus and a sugar reward as the unconditioned stimulus. These trained bees were then exposed to an odor pulse of a candidate compound to test whether a candidate compound would also produce a PER. If the candidate compound “mimics” 2-heptanone then the honeybee will extend its proboscis.
For conditioning procedures, Apis mellifera Carniolan foraging worker honeybees were obtained from a local apiary (typically 60 bees per shipment). The honeybees were held overnight in insect cages with food and water freely available, in an environmentally controlled room on a light cycle similar to the ambient cycle at the time of the assay.
For conditioning procedures, all tests were done in an odorant delivery apparatus set inside a fume hood. The apparatus comprised a set of open-ended, horizontal, 3 cm diameter by 10 cm long plastic tubes. Each tube was designed where a honeybee could be positioned at the distal end of a tube, with the opening at the other end of the tube located proximal to an inlet of the fume hood. To deliver an odorant, room air was pumped by a diaphragm pump through a particle filter via 0.25 inch plastic tubing at approximately 0.7 m/sec. The air flow passes into the headspace above an odorant (0.5% [v/v] 2-heptanone dissolved in odorless light paraffin oil) contained in a 100 mL bottle. The headspace air then passes through another plastic tube to a manifold of 4-way valves, each of which was attached near the proximal end of a plastic tube containing a bee. Each bee was exposed separately for a desired time period to the odorant by opening and closing the appropriate valve. When each valve was closed, the odor was flushed away immediately by the continuous fume hood air stream.
To train a honeybee to respond to a conditioned and unconditioned stimuli, bees were placed, without anesthesia, in individual 1.5 mL micro-centrifuge holding tubes and held overnight without access to food or water. The holding tubes containing the starved bees were placed in racks in groups of eight. One rack at a time was placed behind the odorant delivery apparatus so that each bee's head is centered at the distal end of a horizontal plastic tube. Each bee was exposed to the 2-heptanone odorant alone for four seconds, and then while being fed an 80% sucrose solution for and additional three seconds. The sucrose solution was delivered on a piece of saturated filter paper held in forceps. […] Positive and negative responses were recorded. A positive PER was scored when a bee extended its proboscis before the sucrose appeared. In a typical trial, 48 individual bees were subjected to conditioning.
After conditioning, honeybees were tested with the candidate compounds the same day or on the following day or, most commonly, both. When held overnight, bees were fed with sucrose and kept in their holding tubes. When tested the day after training, bees were given one or more rounds of conditioning with 2-heptatone to refresh their memories. Candidate compounds stocks were made at 5% (w/v) in polyoxyethylene octyl phenyl ether (TRITON® X-100), a non-ionic detergent/surfactant, and stored at 4° C. […] Test solutions were made fresh daily by mixing stock solutions with water for a final compound concentration of 0.5%. A solution of 0.5% 2-heptanone in paraffin oil was used as a positive control.

[2] = system: Apis mellifera Carniolan foraging worker honeybees; assay: Choice test in a free-flight box apparatus; format: in vivo; conditions: for P (probability that a honeybee will return to a test dish, nP divided by n): control likelihood without compound 47.5%; for nP (number of tests a honeybee returned to a preferred test dish): free-flight box, 2 μL of 0.05-0.5% compound on filter papers under honey dish
Source text: To determine whether living honeybees will choice to move towards a source of a candidate compound, these compounds will be assayed using a choice test in a free-flight box apparatus.
All tests will be done in a free-flight box apparatus. The apparatus comprises a 244 cm long×46 cm deep×30 cm high clear plastic box including two equally-sized independent testing chambers, each with 10 cm diameter air inlets that admit filtered room air, separated by a smaller central chamber with a screened air outlet to each testing chamber. Air can be pulled through the sealed box via a 10 cm diameter duct from the air outlet using an AQE Fume Fighter 500 fume extractor (BPA Air Quality Solutions, LLC, Charleston, S.C.), which removes the test odors using activated charcoal and HEPA filters. The box is housed in an environmentally controlled room with overhead illumination timed to correspond to the current ambient light cycle including 2 additional sets of lights timed to approximate crepuscular lighting conditions. The bottom of the apparatus will be lined with clean absorbent paper marked with a 4×9 grid pattern, forming 12 cm×12 cm squares with marked coordinates.
Apis mellifera Carniolan foraging worker honeybees will be obtained from a local apiary (typically 60 bees per shipment). Thirty honeybees will be put into each testing chamber and will be allowed to acclimate for 24 hours with food and water freely available. At the beginning of each test day all food will be removed from the test chamber, but water will be continually available throughout all tests. For each test, approximately 0.3 g of organic, raw orange blossom honey will be added to each clean small plastic weigh boat (Cole-Palmer). The honey boats will be placed in small plastic culture dishes, which will be distributed in the marked squares in the chambers. The positions of the dishes on the grid for a set of trials will be chosen to avoid the bees' preferred resting area so that they will have to find the food actively, but the same dish positions will be maintained for a given set of trials. We will use seven dishes of honey: six to which the bees will have access and a seventh that will have a screened lid. The honey in each boat will be weighed on an analytical balance before and after the test, with the screened sample as a control for evaporative loss. The fume extractor will be left off during the experimental trails, and will be turned on to clear the air after the test dishes are covered and removed from the chamber at the end of each trial.
Based on the observation that bees tend to return to dishes in the same position where they have fed before, each set of trials with each group of bees began with “Pattern Identification” tests to see which dishes lose the most weight, reflecting the most feeding. Once bees are consuming an acceptable amount in 10-15 min, typically in 1-2 trials, a set of test compound trials will begin. The test compound will be pipetted onto pieces of filter paper placed on the dish bottom below the boat containing a fresh, weighed honey sample so that the test compound will be inaccessible to the bees. We used 2 μL of a candidate compound at a concentration of 0.05-0.5%, in Triton X-100 or paraffin oil, on each of four pieces of filter paper per dish. The test-solution dishes will be set at the same positions as the one or two dishes favored in the preceding Pattern Identification trial. To eliminate interference from the solvent, the other dishes without the test substance will contain the same volume of the appropriate solvent on filter papers as the test solution dishes. The bees will be allowed to feed for 10-15 minutes. Bee movements will be recorded by a small, wide-angle digital video camcorder (HD Hero 960; GoPro, Halfmoon Bay, Calif.) placed on a tripod in front of the test chamber. […]

[3] = cited from earlier work

CCOC(=O)c1cc(CC)sc1NC(=O)c1ccccc1 [compound 81, ethyl 2-(benzoylamino)-5-ethyl-3-thiophenecarboxylate]
OBP2 binding characteristic of compound (OBP2): Moderate (Moderate, indicates that 50% or less of the compound bound to OBP2.) | 2-heptanone positive bees testing positive to compound [1]: 37.5% | P (probability that a honeybee will return to a test dish, nP divided by n) [2]: 0.333 | nP (number of tests a honeybee returned to a preferred test dish) [2]: 6

CCc1ccc(O)c(N=Cc2cc(I)cc(I)c2O)c1 [compound 89, 2-{[(5-ethyl-2-hydroxyphenyl)imino]methyl}-4,6-diiodophenol]
OBP2 binding characteristic of compound (OBP2): Moderate (Moderate, indicates that 50% or less of the compound bound to OBP2.) | 2-heptanone positive bees testing positive to compound [1]: 33.3% | P (probability that a honeybee will return to a test dish, nP divided by n) [2]: 0.278 | nP (number of tests a honeybee returned to a preferred test dish) [2]: 5

CCCCCC(C)=O [2-heptone, 2-Heptanone, reference compound]
Z-score ([2]; Z-test vs control likelihood 47.5%, alpha=10%, critical Z-score 1.282, positive = attractant, negative = repellant): −2.256 | P (probability that a honeybee will return to a test dish, nP divided by n) [2]: 0.425 | nP (number of tests a honeybee returned to a preferred test dish) [2]: 217 | Solubility in water [3]: very slightly soluble
